Assay results from patent publication US5922697A, “Compounds, compositions and methods for inhibiting the binding of proteins containing an SH2 domain to cognate phosphorylated proteins” (Warner-Lambert Company, priority 1998, dated 1999).
Read-outs that look alike come from different tables or passages of the source.

Assays:
Src SH2 = molecular target: T1, Src SH2 (Homo sapiens, UniProt P12931); experiment: Inhibition of 125I-phosphopeptide binding to immobilized Src SH2; conditions: competitive 125I-phosphopeptide displacement, GST-Src SH2 fusion protein, pH 7.5, room temperature, 20 minutes
T1 construct: glutathione-S-transferase(GST)-Src SH2 fusion protein
Protocol: The binding affinities of compounds of the present invention to Src SH2 was determined using a competitive radiolabeled phosphopeptide displacement assay.
Binding was performed at room temperature for 20 minutes while continuously inverting the plate. […] Results are expressed as IC50 values in Table 1 below.

Abl SH2 = molecular target: T2, Abl SH2 (Homo sapiens, UniProt P00519); experiment: Inhibition of 125I-phosphopeptide binding to immobilized Abl SH2
T2 construct: glutathione-S-transferase(GST)-Abl SH2 fusion protein
T2 sequence (P00519 127-217 limits assumed): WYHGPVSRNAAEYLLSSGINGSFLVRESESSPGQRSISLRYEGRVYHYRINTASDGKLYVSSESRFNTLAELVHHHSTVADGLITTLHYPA
Protocol: The binding affinities of compounds of the present invention to Abl SH2 was determined using a competitive radiolabeled phosphopeptide displacement assay. […] Binding was performed at room temperature for 20 minutes while continuously inverting the plate.

[1] = IC50, Abl SH2 Binding, competitive 125I-phosphopeptide displacement, GST-Abl SH2 fusion protein, pH 7.5, room temperature, 20 minutes
[2] = read-out: IC50, SRC SH2 Binding
[3] = competitive 125I-phosphopeptide displacement, GST-Abl SH2 fusion protein, pH 7.5, room temperature, 20 minutes; read-out: IC50, Abl SH2 Binding

T1 sequence (P12931 151-248 limits assumed): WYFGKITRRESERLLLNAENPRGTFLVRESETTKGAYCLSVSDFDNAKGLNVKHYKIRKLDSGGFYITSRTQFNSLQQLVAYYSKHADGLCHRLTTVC

| SMILES | IC50 (Src SH2; IC50, SRC SH2 Binding) | IC50 (Abl SH2; [1]) | further results |
| --- | --- | --- | --- |
| CC(=O)N[C@@H](Cc1ccc(OP(=O)(O)O)cc1)C(=O)NC(C)c1ccc(OCC2CCCCC2)c(CC(N)=O)c1 (mixture of isomers) [Example 65, (S)-Phosphoric acid mono-(4-{2-acetylamino-2-[(RS)-1-(3-carbamoylmethyl-4-cyclohexylmethoxy-phenyl)-ethylcarbamoyl]-ethyl}-phenyl) ester] | 9.2 µM | 24 µM | – |
| CC(=O)N[C@@H](Cc1ccc(OP(=O)(O)O)cc1)C(=O)NCc1ccc(OC(C)CC2CCCCC2)c(C(N)=O)c1 (mixture of isomers) [Example 66, Phosphoric acid mono-(4-{(S)-2-acetylamino-2-[3-carbamoyl-4-(2-cyclohexyl-(RS)-1-methyl-ethoxy)-benzylcarbamoyl]-ethyl}-phenyl) ester] | 3.8 µM | 11 µM | – |
| CC(=O)N[C@@H](Cc1ccc(OP(=O)(O)O)cc1)C(=O)NC(Cc1ccccc1)c1ccc(OCC2CCCCC2)c(C(N)=O)c1 (mixture of isomers) [Example 67, Phosphoric acid mono-(4{(S)-2-acetylamino-2-[(RS)-1-(3-carbamoyl-4-cyclohexylmethoxy-phenyl)-2-phenyl-ethylcarbamoyl]-ethyl}-phenyl) ester] | 1 µM | 6 µM | – |
| CC(=O)N[C@@H](Cc1ccc(OP(=O)(O)O)cc1)C(=O)NC(C)c1ccc(OCc2cc(C)cc(C)c2)c(C(N)=O)c1 (mixture of isomers) [Example 68, Phosphoric acid mono-[4-((S)-2-acetylamino-2-{(RS)-1-[3-carbamoyl-4-(3,5-dimethyl-benzyloxy)-phenyl]-ethylcarbamoyl}-ethyl)-phenyl] ester] | 1.1 µM | 5.7 µM | – |
| CCCC(NC(=O)[C@H](Cc1ccc(OP(=O)(O)O)cc1)NC(C)=O)c1ccc(OCC2CCCCC2)c(C(N)=O)c1 (mixture of isomers) [Example 69, Phosphoric acid mono-(4-{(S)-2-acetylamino-2-[(RS)-1-(3-carbamoyl-4-cyclohexylmethoxy-phenyl)-butylcarbamoyl]-ethyl}-phenyl) ester] | 2.1 µM | 7.4 µM | – |
| CC(=O)N[C@@H](Cc1ccc(P(=O)(O)O)cc1)C(=O)NC(C)c1ccc(OCC2CCCCC2)c(C(N)=O)c1 (mixture of isomers) [Example 73, (4-{(S)-2-Acetylamino-2-[(RS)-1-(3-carbamoyl-4-cyclohexylmethoxy-phenyl)-ethylcarbamoyl]-ethyl}-phenyl)-phosphonic acid] | – | – | IC50 (Src SH2; [2]): 8.6 µM; IC50 (Abl SH2; [3]): 26 µM |
| CC(NC(=O)Nc1cccc2cc(OP(=O)(O)O)ccc12)c1ccc(OCC2CCCCC2)c(C(N)=O)c1 (racemic) [Example 75, (+/-)-Phosphoric acid mono-(5-{3-[1-(3-carbamoyl-4-cyclohexylmethoxy-phenyl)-ethyl]-ureido}-naphthalen-2-yl) ester] | 7.2 µM | ~60 µM | – |
| CC(=O)N[C@@H](Cc1ccc(C(F)(F)P(=O)(O)O)cc1)C(=O)NC(C)c1ccc(OCC2CCCCC2)c(C(N)=O)c1 (single isomer, unassigned) [Example 63b, [S-(R*,R*)]- or [S-(R*,S*)]-[(4-{2-Acetylamino-2-[1-(3-carbamoyl-4-cyclohexylmethoxy-phenyl)-ethylcarbamoyl]-ethyl}-phenyl)-difluoro-methyl]-phosphonic acid] | – | – | IC50 (Src SH2; [2]): 29 µM; IC50 (Abl SH2; [3]): 59 µM |
| CC(=O)N[C@@H](Cc1ccc(OP(=O)(O)O)cc1)C(=O)NC(C)c1ccc(OC(C)CC2CCCCC2)c(C(N)=O)c1 (single isomer, unassigned) [Example 64a, Phosphoric acid mono-[4-(2-acetylamino-2-{1-[3-carbamoyl-4-(2-cyclohexyl-1-methyl-ethoxy)-phenyl]-ethylcarbamoyl]-ethyl)-phenyl] ester] | 0.6 µM | 2.4 µM | – |
| CC(=O)N[C@@H](Cc1ccc(OP(=O)(O)O)cc1)C(=O)NC(C)c1ccc(OC(C)CC2CCCCC2)c(C(N)=O)c1 (single isomer, unassigned) [Example 64b, Phosphoric acid mono-[4-(2-acetylamino-2-{1-[3-carbamoyl-4-(2-cyclohexyl-1-methyl-ethoxy)-phenyl]-ethylcarbamoyl}-ethyl)-phenyl] ester] | 11 µM | 14 µM | – |
| CC(=O)N[C@@H](Cc1ccc(OP(=O)(O)O)cc1)C(=O)N[C@@H](CCC(=O)O)C(=O)N1CCC[C@@H]1CCc1ccccc1 [Example 11, 4-[(S)-2-Acetylamino-3-(4-phosphonooxy-phenyl)-(S)-propionylamino]-5-oxo-5-((S)-2-phenethyl-pyrrolidin-1-yl)-pentanoic acid] | – | – | IC50 (Src SH2; [2]): 2.1 µM; IC50 (Abl SH2; [3]): 17 µM |
| CC(=O)N[C@@H](Cc1ccc(OP(=O)(O)O)cc1)C(=O)N[C@@H](CCC(=O)O)C(=O)N1CCC[C@@H]1CCC1CCCCC1 [Example 12, 4-[(S)-2-Acetylamino-3-(4-phosphonooxy-phenyl)-(S)-propionylamino]-5-[2-((S)-2-cyclohexyl-ethyl)-pyrrolidin-1-yl]-5-oxo-pentanoic acid] | – | – | IC50 (Src SH2; [2]): 0.7 µM; IC50 (Abl SH2; [3]): 2.5 µM |
| CC(=O)N[C@@H](Cc1ccc(OP(=O)(O)O)cc1)C(=O)N[C@@H](CCC(=O)O)C(=O)NCCCc1cccc(OCC(N)=O)c1 [Example 24, [S-(R*,R*)]-4-[2-Acetylamino-3-(4-phosphonooxy-phenyl)-propionylamino]-4-[3-(3-carbamoylmethoxy-phenyl)-propylcarbamoyl]-butyric acid] | 7.2 µM | 36 µM | – |
| CN(CCCC1CCCCC1)C(=O)[C@H](CCC(=O)O)NC(=O)N(CC(=O)O)Cc1ccc(OP(=O)(O)O)cc1 [Example 35, (S)-4-[3-carboxymethyl-3-(4-phosphonooxy-benzyl)-ureido]-4-[(3-cyclohexyl-propyl)-methyl-carbamoyl]-butyric acid] | – | – | IC50 (Abl SH2; read-out: IC50, Abl SH2 Binding; competitive 125I-phosphopeptide displacement, GST-Abl SH2 fusion protein, pH 7.5, room temperature, 20 minutes): > 100 µM |
| NC(=O)c1cc(CNC(=O)c2ccc(OP(=O)(O)O)cc2)ccc1OCC1CCCCC1 [Example 44, Phosphoric acid mono-[4-(3-carbamoyl-4-cyclohexyl-methoxy-benzylcarbamoyl)-phenyl] ester] | – | – | IC50 (Src SH2; [2]): 6.5 µM |
| NC(=O)c1cc(CNC(=O)c2ccc(C(F)(F)P(=O)(O)O)cc2)ccc1OCC1CCCCC1 [Example 45, [4-(3-Carbamoyl-4-cyclohexylmethoxy-benzylcarbamoyl)-phenyl]-difluoro-methyl-phosphonic acid] | – | – | IC50 (Src SH2; [2]): ~50 µM |
| Cc1cc(C(=O)NCc2ccc(OCC3CCCCC3)c(C(N)=O)c2)cc(C)c1OP(=O)(O)O [Example 46, Phosphoric acid mono-[4-(3-carbamoyl-4-cyclohexyl-methoxy-benzylcarbamoyl)-2,6-dimethyl-phenyl] ester] | 12.5 µM | – | – |
| NC(=O)c1cc(CNC(=O)c2ccc(OP(=O)(O)O)c(Cl)c2)ccc1OCC1CCCCC1 [Example 47, Phosphoric acid mono-[4-(3-carbamoyl-4-cyclohexyl-methoxy-benzylcarbamoyl)-2-chloro-phenyl] ester] | ~20 µM | – | – |
| CNC(=O)c1cc(CNC(=O)c2ccc(OP(=O)(O)O)cc2)ccc1OCC1CCCCC1 [Example 48, Phosphoric acid mono-[4-(4-cyclohexylmethoxy-3-methylcarbamoyl-benzylcarbamoyl)-phenyl] ester] | ~30 µM | – | – |
| CC(=O)N[C@@H](Cc1ccc(OP(=O)(O)O)cc1)C(=O)NCc1ccc(OCC2CCCCC2)c(C(N)=O)c1 [Example 49, (S)-Phosphoric acid mono-{4-[2-acetylamino-2-(3-carbamoyl-4-cyclohexylmethoxy-benzylcarbamoyl)-ethyl]-phenyl} ester] | 8.5 µM | – | – |
| CC(=O)N[C@@H](Cc1ccc(OP(=O)(O)O)cc1)C(=O)NCc1ccc(OCc2cc(C)cc(C)c2)c(C(N)=O)c1 [Example 50, (S)-Phosphoric acid mono-(4-{2-acetylamino-2-[3-carbamoyl-4-(3,5-dimethyl-benzyloxy)-benzylcarbamoyl]-ethyl}-phenyl) ester] | 2.5 µM | – | – |
| CNC(=O)N[C@@H](Cc1ccc(OP(=O)(O)O)cc1)C(=O)NCc1ccc(OCC2CCCCC2)c(C(N)=O)c1 [Example 52] | 6.2 µM | – | – |
| CC(=O)N[C@@H](Cc1ccc(C(F)(F)P(=O)(O)O)cc1)C(=O)NCc1ccc(OCC2CCCCC2)c(C(N)=O)c1 [Example 53, (S)-{4-[2-Acetylamino-2-(3-carbamoyl-4-cyclohexyl-methoxy-benzylcarbamoyl)-ethyl]-phenyl}-difluoro-methyl-phosphonic acid] | 12.1 µM | – | – |
| CC(=O)N[C@@H](Cc1ccc(OP(=O)(O)O)cc1)C(=O)N[C@@H](CCC(=O)O)C(=O)NCCC12CC3CC(CC(C3)C1)C2 [Example 56, [S-(R*,R*)]-4-[2-Acetylamino-3-(4-phosphonooxy-phenyl)-propionylamino]-4-(2-adamantan-1-yl-ethylcarbamoyl)-butyric acid] | 3.8 µM | – | – |
| CC(=O)N[C@@H](Cc1ccc(OP(=O)(O)O)cc1)C(=O)NCc1ccc(OCC2CCCCC2)c(C(=O)NN)c1 [Example 71, (S)-Phosphoric acid mono-{4-[2-acetylamino-2-(4-cyclohexylmethoxy-3-hydrazinocarbonyl-benzylcarbamoyl)-ethyl]-phenyl} ester] | 18 µM | – | – |
